The source of these data is patent US12559492B2, “BRAF degraders” (C4 Therapeutics, Inc., priority 2020, dated 2026).

This assay concerns the target BRAF^V600E protein (Homo sapiens, UniProt P15056, V600E). In words: HiBiT cellular BRAF V600E degradation assay. The note with it: 24 h incubation; for DC50: A375.10 cells (HiBiT tag knocked in at N-terminal of BRAF V600E), concentration at which 50% of total cellular BRAF V600E is degraded; for Emax: A375.10 cells, Emax = amount of residual protein remaining in the cell after compound treatment, read-out: HiBit 24 h Emax. It is filed as cell-based. In general terms: With HiBiT, luminescence reflects the tagged protein that the partner subunit can reach.

One may read the DC50 as the concentration at which degradation of the target reaches its halfway point. Low values mean a more potent degrader, high ones a less potent degrader. One may read the Emax as the size of the effect at its maximum, as opposed to the concentration needed.

Sequence of BRAF^V600E protein (P15056 whole entry V600E): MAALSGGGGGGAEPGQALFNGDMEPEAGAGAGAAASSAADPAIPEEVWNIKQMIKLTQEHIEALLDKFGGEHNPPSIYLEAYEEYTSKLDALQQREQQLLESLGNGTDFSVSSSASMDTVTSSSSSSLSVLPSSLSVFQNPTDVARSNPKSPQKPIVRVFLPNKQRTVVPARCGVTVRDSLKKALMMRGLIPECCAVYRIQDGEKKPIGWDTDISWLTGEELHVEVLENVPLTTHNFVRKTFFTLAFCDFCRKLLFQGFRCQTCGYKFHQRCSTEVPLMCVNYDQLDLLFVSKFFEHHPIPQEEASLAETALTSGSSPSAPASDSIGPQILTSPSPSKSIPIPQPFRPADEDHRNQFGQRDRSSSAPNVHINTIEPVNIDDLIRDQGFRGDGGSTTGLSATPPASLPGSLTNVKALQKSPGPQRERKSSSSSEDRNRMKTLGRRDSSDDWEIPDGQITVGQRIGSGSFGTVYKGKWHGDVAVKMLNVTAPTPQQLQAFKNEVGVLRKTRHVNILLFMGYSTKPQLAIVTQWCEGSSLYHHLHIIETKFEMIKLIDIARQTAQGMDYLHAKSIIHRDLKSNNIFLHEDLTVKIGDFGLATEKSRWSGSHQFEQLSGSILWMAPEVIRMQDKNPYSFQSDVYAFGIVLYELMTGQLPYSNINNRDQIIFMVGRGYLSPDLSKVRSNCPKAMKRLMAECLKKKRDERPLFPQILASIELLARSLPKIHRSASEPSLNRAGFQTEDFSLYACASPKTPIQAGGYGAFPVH

Take `CCN(C)S(=O)(=O)Nc1ccc(F)c(C(=O)c2c[nH]c3ncc(-c4ccc(N5CCN(C(=O)CC6(O)CCN(c7cc(Cl)c(N8CCC(=O)NC8=O)cc7F)CC6)CC5)nc4)cc23)c1F` [Example 219, 5-[6-[4-[2-[1-[5-chloro-4-(2,4-dioxohexahydropyrimidin-1-yl)-2-fluoro-phenyl]-4-hydroxy-4-piperidyl]acetyl]piperazin-1-yl]-3-pyridyl]-3-[3-[[ethyl(methyl)sulfamoyl]amino]-2,6-difluoro-benzoyl]-1H-pyrrolo[2,3-b]pyridine]: the half-maximal degradation concentration (DC50) worked out at 1.65 nM and the Emax came out at 6.11%.

Regarding `CCN(C)S(=O)(=O)Nc1ccc(F)c(C(=O)c2c[nH]c3ncc(-c4ccc(N5CCN(C(=O)CC6(O)CCN(c7cc(F)c(N8CCC(=O)NC8=O)cc7F)CC6)CC5)nc4)cc23)c1F` [Example 220, 5-[6-[4-[2-[1-[4-(2,4-dioxohexahydropyrimidin-1-yl)-2,5-difluoro-phenyl]-4-hydroxy-4-piperidyl]acetyl]piperazin-1-yl]-3-pyridyl]-3-[3-[[ethyl(methyl)sulfamoyl]amino]-2,6-difluoro-benzoyl]-1H-pyrrolo[2,3-b]pyridine], it took 1.45 nM to reach half-maximal degradation (DC50) and the Emax amounted to 7.62%.

`CCN(C)S(=O)(=O)Nc1ccc(F)c(C(=O)c2c[nH]c3ncc(-c4cc(F)c(N5CCN(C(=O)CC6(O)CCN(c7ccc(NC8CCC(=O)NC8=O)cc7F)CC6)CC5)cc4F)cc23)c1F` (stereo not drawn) [Example 221, 5-[4-[4-[2-[1-[4-[(2,6-dioxo-3-piperidyl)amino]-2-fluoro-phenyl]-4-hydroxy-4-piperidyl]acetyl]piperazin-1-yl]-2,5-difluoro-phenyl]-3-[3-[[ethyl(methyl)sulfamoyl]amino]-2,6-difluoro-benzoyl]-1H-pyrrolo[2,3-b]pyridine]: half-maximal degradation (DC50) was put at 5.65 nM and the Emax amounted to 9.12%.

On to `CCN(C)S(=O)(=O)Nc1ccc(F)c(C(=O)c2c[nH]c3ncc(-c4ccc(N5CCN(C(=O)CN6CCC(c7ccc(OC8CCC(=O)NC8=O)cc7)CC6)CC5)nc4)cc23)c1F` (stereo not drawn) [Example A1, 5-[6-[4-[2-[4-[4-(2,6-Dioxopiperidin-3-yl)oxyphenyl]piperidin-1-yl]acetyl]piperazin-1-yl]pyridin-3-yl]-3-[3-[[ethyl(methyl)sulfamoyl]amino]-2,6-difluorobenzoyl]-1H-pyrrolo[2,3-b]pyridine], for which the half-maximal degradation concentration (DC50) was 17 nM and the maximum response (Emax) worked out at 13%.

As to `CCN(C)S(=O)(=O)Nc1ccc(F)c(C(=O)c2c[nH]c3ncc(-c4ccc(N5CCN(C(=O)CCCN6CCC(c7ccc(OC8CCC(=O)NC8=O)cc7)CC6)CC5)nc4)cc23)c1F` (stereo not drawn) [Example A2, 5-[6-[4-[4-[4-[4-(2,6-Dioxopiperidin-3-yl)oxyphenyl]piperidin-1-yl]butanoyl]piperazin-1-yl]pyridin-3-yl]-3-[3-[[ethyl(methyl)sulfamoyl]amino]-2,6-difluorobenzoyl]-1H-pyrrolo[2,3-b]pyridine], the half-maximal degradation concentration (DC50) stood at 66 nM and the maximum response (Emax) was 22%.

As for `CCN(C)S(=O)(=O)Nc1ccc(F)c(C(=O)c2c[nH]c3ncc(-c4ccc(N5CCN(CC(=O)N6CCC(c7ccc(OC8CCC(=O)NC8=O)cc7)CC6)CC5)nc4)cc23)c1F` (stereo not drawn) [Example A3, 5-[6-[4-[2-[4-[4-(2,6-Dioxopiperidin-3-yl)oxyphenyl]piperidin-1-yl]-2-oxoethyl]piperazin-1-yl]pyridin-3-yl]-3-[3-[[ethyl(methyl)sulfamoyl]amino]-2,6-difluorobenzoyl]-1H-pyrrolo[2,3-b]pyridine], the half-maximal degradation concentration (DC50) came to 46 nM and the Emax was 19%.

Consider `CCN(C)S(=O)(=O)Nc1ccc(F)c(C(=O)c2c[nH]c3ncc(-c4ccc(CN5CCN(C(=O)N6CCN(c7ccc(OC8CCC(=O)NC8=O)cc7)CC6)CC5)cc4)cc23)c1F` (stereo not drawn) [Example A4, 5-[4-[[4-[4-[4-(2,6-Dioxopiperidin-3-yl)oxyphenyl]piperazine-1-carbonyl]piperazin-1-yl]methyl]phenyl]-3-[3-[[ethyl(methyl)sulfamoyl]amino]-2,6-difluorobenzoyl]-1H-pyrrolo[2,3-b]pyridine], for which the DC50 was 83 nM and the Emax turned out to be 31%.

For `CCN(C)S(=O)(=O)Nc1ccc(F)c(C(=O)c2c[nH]c3ncc(-c4ccc(N5CCN(CCCC(=O)N6CCC(c7ccc(OC8CCC(=O)NC8=O)cc7)CC6)CC5)nc4)cc23)c1F` (stereo not drawn) [Example A5, 5-[6-[4-[4-[4-[4-(2,6-Dioxopiperidin-3-yl)oxyphenyl]piperidin-1-yl]-4-oxobutyl]piperazin-1-yl]pyridin-3-yl]-3-[3-[[ethyl(methyl)sulfamoyl]amino]-2,6-difluorobenzoyl]-1H-pyrrolo[2,3-b]pyridine], half-maximal degradation (DC50) was put at 104 nM and the Emax is 34%.

As for `CCN(C)S(=O)(=O)Nc1ccc(F)c(C(=O)c2c[nH]c3ncc(-c4cnc(N5CCN(C(=O)CN6CCC(c7ccc(OC8CCC(=O)NC8=O)cc7)CC6)CC5)nc4)cc23)c1F` (stereo not drawn) [Example A6, 5-[2-[4-[2-[4-[4-(2,6-Dioxopiperidin-3-yl)oxyphenyl]piperidin-1-yl]acetyl]piperazin-1-yl]pyrimidin-5-yl]-3-[3-[[ethyl(methyl)sulfamoyl]amino]-2,6-difluorobenzoyl]-1H-pyrrolo[2,3-b]pyridine], it took 15 nM to reach half-maximal degradation (DC50) and the Emax stood at 13%.

In the case of `CCN(C)S(=O)(=O)Nc1ccc(F)c(C(=O)c2c[nH]c3ncc(-c4ccc(CN5CCN(CC(=O)N6CCC(c7ccc(NC8CCC(=O)NC8=O)cc7)CC6)CC5)nc4)cc23)c1F` (stereo not drawn) [Example A7, 5-[6-[[4-[2-[4-[4-[(2,6-Dioxopiperidin-3-yl)amino]phenyl]piperidin-1-yl]-2-oxoethyl]piperazin-1-yl]methyl]pyridin-3-yl]-3-[3-[[ethyl(methyl)sulfamoyl]amino]-2,6-difluorobenzoyl]-1H-pyrrolo[2,3-b]pyridine;2,2,2-trifluoroacetic acid], it took 16.8 nM to reach half-maximal degradation (DC50) and the Emax worked out at 12.9%.

Take `CCN(C)S(=O)(=O)Nc1ccc(F)c(C(=O)c2c[nH]c3ncc(-c4ccc(N5CCN(C(=O)CN6CCC(c7ccc(NC8CCC(=O)NC8=O)cc7)CC6)CC5)nc4)cc23)c1F` (stereo not drawn) [Example A8, 5-[6-[4-[2-[4-[4-[(2,6-Dioxopiperidin-3-yl)amino]phenyl]piperidin-1-yl]acetyl]piperazin-1-yl]pyridin-3-yl]-3-[3-[[ethyl(methyl)sulfamoyl]amino]-2,6-difluorobenzoyl]-1H-pyrrolo[2,3-b]pyridine]: the DC50 turned out to be 8.18 nM and the Emax amounted to 9.42%.

On to `CCN(C)S(=O)(=O)Nc1ccc(F)c(C(=O)c2c[nH]c3ncc(-c4ccc(CN5CCN(C(=O)CN6CCC(c7ccc(NC8CCC(=O)NC8=O)cc7)CC6)CC5)nc4)cc23)c1F` (stereo not drawn) [Example A9, 5-[6-[[4-[2-[4-[4-[(2,6-Dioxopiperidin-3-yl)amino]phenyl]piperidin-1-yl]acetyl]piperazin-1-yl]methyl]pyridin-3-yl]-3-[3-[[ethyl(methyl)sulfamoyl]amino]-2,6-difluorobenzoyl]-1H-pyrrolo[2,3-b]pyridine], for which it took 30 nM to reach half-maximal degradation (DC50) and the Emax was found to be 14%.
